Legend:
[1] = Release of quercetin during in vitro gastrointestinal digestion simulation; format: in vitro ADME; details: for release rate of quercetin: simulated gastric digestion
Method: Experimental method: The pH of 40 mL of freshly prepared free quercetin and quercetin composite nanoparticles dispersion was adjusted to 2.0 with 1 M HCl. After 10 min of preheating in a shaker (37° C., 100 rpm/min), 26.7 mg of pepsin was added and thoroughly mixed for 1 h to initiate simulated gastric digestion. After 1 h of digestion at 37° C., the pH of the pepsin digest was adjusted to 7.4 using 5 M NaOH. 200 mg of bile salts were added and mixed well in a shaker for 10 min. Then 13.6 mg of trypsin was added to start simulated intestinal digestion for 2 h. During the simulated gastrointestinal digestion process, 3 mL of digestion samples were collected at different digestion time (0, 30, 60, 90, 120, 150 and 180 min), and the enzyme was immediately inactivated with liquid nitrogen to terminate the reaction. The content of quercetin was determined, and the release rate (%) of quercetin was calculated according to the following formula: […]

[2] = DPPH free radical scavenging method; format: biochemical; details: 100 μM DPPH, 30 min in dark
Method: A 100 μM solution of DPPH (as-is) was prepared in dark using absolute ethanol. A volume of 2 mL DPPH solution was taken out and mixed well with 2 mL of sample solution, and allowed to react in dark at room temperature for 30 min. The absorbance at 517 nm of the mixture was measured using a UV-visible spectrophotometer. Distilled water and absolute ethanol were served as blank controls instead of samples. The formula for calculating the DPPH free radical scavenging rate of the sample was as follows:
Wherein, A0 represents blank; A1 is the sample with ethanol; A2 is the sample with DPPH solution.

[3] = Solubility of quercetin in water; format: physicochemical
Method: Determination method: The quercetin concentration in the quercetin-loaded composite nanoparticle dispersion liquid was determined in the same manner as described in the examples, and calculation was done using the standard curve and dilution ratio. And the solubility of quercetin in water was calculated according to the following formula:
Solubility (μg/mL)=detected quercetin concentration×dilution factor

[4] = Effect of light (UV 253.7 nm) on stability of quercetin (retention rate); format: physicochemical; details: after 210 min of ultraviolet light irradiation
Method: Experimental method: The freshly prepared free quercetin and quercetin-loaded composite nanoparticle dispersions were taken into transparent glass bottles in equal volume. It was then placed in a light cabinet of 0.24 m^3 and exposed to light with a wavelength of 253.7 nm, which was generated by a UV lamp with a power of 20 W. After exposure to light for 0, 30, 60, 90, 150, and 210 min, the stability of quercetin in different samples was studied, the residual quercetin content in the samples was determined, and the retention rate of quercetin (%) was calculated according to the following formula: […]

[5] = Effect of temperature on stability of quercetin (retention rate); format: physicochemical; details: water bath 60, 75 and 90° C. for 30 min
Method: Experimental method: The newly prepared free quercetin and quercetin-loaded composite nanoparticle dispersions were placed into glass-sealed bottles and heated in a water bath at 60, 75 and 90° C. for 30 min, respectively. It was then immediately cooled to room temperature at 25° C., and the amount of quercetin remaining in the sample was determined. The retention rate (%) of quercetin was calculated according to the following formula: […]

O=c1c(O)c(-c2ccc(O)c(O)c2)oc2cc(O)cc(O)c12 [quercetin]
quercetin released in the digestive juice ([1]; after subsequent simulated intestinal digestion): 90.09% | release rate of quercetin ([1]; 60 min): 64.06% | release rate of quercetin ([1]; first 30 min): 42.36% | DPPH free radical scavenging rate [2]: 94.52% | solubility of quercetin in water [3]: 7.05 µg/mL | retention rate of quercetin [4]: 60.08% | thermal stability of quercetin [5]: poor thermal stability

Reference: patent US20230276832A1, “ULTRASONIC PREPARATION METHOD OF PROTEIN-DERIVED PEPTIDE-POLYSACCHARIDE NANOPARTICLES LOADED WITH BIOACTIVE COMPONENTS” (JIANGSU UNIVERSITY, priority 2021, published 2023)
